The values that follow come from patent publication US9216157B2, “Chewing gum in the form of multi-layer tablets” (Jagotec AG, priority 2003, dated 2015).

Series [1] can be described thus: Evaluation of release of active component in vivo (chewing by volunteers, residue analysed). Set-up: species or system human. The following applies: for Caffeine released in vivo (average): average of 3 volunteers. How it is done: To establish the release of active component from the chewing gum, the tablets were tested by a panel of 3 volunteers. For each test, the volunteer was asked to chew one piece of gum for a set time. After that time the gum was ground, and the active component content analysed. The in vivo tests were conducted with the following chewing times: 5, 10, 15, 20, 30 and 40 minutes. The gum residue was weighed, frozen and finely ground. An exactly weighed amount of this powder was then subjected to the dissolution test according to the American Pharmacopoeia, using 1000 mL of water at 37° as dissolving fluid, and a paddle at 100 rpm. The test was performed by the spectrophotometry method, operating at 273 nm. The amount of active component released in vivo was determined by subtracting the amount of caffeine in the residue from the amount present in the pharmaceutical form.

Series [2] can be described thus: Dissolution test according to the American Pharmacopoeia (paddle, 100 rpm, 1000 mL water, 37°). Type of series: physicochemical. How it is done: The tablets were then subjected to the dissolution test according to the American Pharmacopoeia method, using 1000 mL of water at 37° as dissolving fluid and a paddle at 100 rpm. The test was performed by the spectrophotometry method, operating at 280 nm.

Setting [3] is: Example 3 tablet, chewing time 5 minutes.
The mark [4] stands for this setting: Example 3 tablet, chewing time 10 minutes.
Where [5] appears, read: Example 3 tablet, chewing time 15 minutes.
Setting [6] is: Example 3 tablet, chewing time 20 minutes.
The mark [7] stands for this setting: Example 3 tablet, chewing time 30 minutes.
The mark [8] stands for this setting: Example 3 tablet, chewing time 40 minutes.
The mark [9] stands for this setting: Example 5 four-layer tablets (50 mg levodopa, 12.5 mg carbidopa), time 0 min.
[10] abbreviates: Example 5 four-layer tablets, time 5 min.
Where [11] appears, read: Example 5 four-layer tablets, time 15 min.
The mark [12] stands for this setting: Example 5 four-layer tablets, time 20 min.
The mark [13] stands for this setting: Example 5 four-layer tablets, time 25 min.
[14] abbreviates: Example 5 four-layer tablets, time 30 min.
Setting [15] is: Example 5 four-layer tablets, time 35 min.
Where [16] appears, read: Example 5 four-layer tablets, time 40 min.

`Cn1c(=O)c2c(ncn2C)n(C)c1=O` [Caffeine]: the “Caffeine released in vivo, Volunteer 2” value in series [1] (setting [3]) amounted to 77.02%; in series [1] (setting [4]) it was 83.66%; in series [1] (setting [5]) it was 90.97%; in series [1] (setting [6]) it was 91.58%; in series [1] (setting [7]), 92.25%; in series [1] (setting [8]), 93.34%. Moreover, the “Caffeine released in vivo, Volunteer 3” value is recorded as 75.07% in series [1] (setting [3]); 84.94% in series [1] (setting [4]); 91.07% in series [1] (setting [5]); 89.61% in series [1] (setting [6]); 92.49% in series [1] (setting [7]); 92.34% in series [1] (setting [8]). Moreover, the “Caffeine released in vivo (average)” value in series [1] (setting [3]) was 74.54%; in series [1] (setting [4]) it was 84.88%; in series [1] (setting [5]) it was 90.74%; in series [1] (setting [6]), 90.21%; in series [1] (setting [7]), 92.89%; in series [1] (setting [8]), 92.82%. In addition, the “Caffeine released in vivo, Volunteer 1” value was determined as 86.03% in series [1] (setting [4]); 90.18% in series [1] (setting [5]); 89.45% in series [1] (setting [6]); 93.92% in series [1] (setting [7]); 92.79% in series [1] (setting [8]); 71.52% in series [1] (Example 3 three-layer chewing gum tablet, 10 mg caffeine, chewing time 5 minutes).

`N[C@@H](Cc1ccc(O)c(O)c1)C(=O)O` [levodopa, Levodopa]: the “percentage released by the tablets” value turned out to be 0.00% in series [2] (setting [9]); 63.52% in series [2] (setting [10]); 90.00% in series [2] (setting [11]); 92.47% in series [2] (setting [12]); 94.04% in series [2] (setting [13]); 94.90% in series [2] (setting [14]). Moreover, the results for the “percentage released by the tablets” value in series [2] (setting [15]) and in series [2] (setting [16]) were 95.66% and 96.28%, respectively.

For `C[C@@](Cc1ccc(O)c(O)c1)(NN)C(=O)O` [carbidopa, Carbidopa], the “percentage released by the tablets” value in series [2] (setting [9]) is reported as 0.00%; in series [2] (setting [10]) it was 78.23%; in series [2] (setting [11]), 92.63%; in series [2] (setting [12]), 94.97%; in series [2] (setting [13]), 96.55%; in series [2] (setting [14]), 98.18%. The “percentage released by the tablets” value in series [2] (setting [15]) worked out at 98.77%; in series [2] (setting [16]), 100.00%.
